{"source": "paper PMC10249031", "about": "(ACS Omega, 2023)", "key": {"[1]": {"tested_on": "A431 cells", "conditions": "10 μM, 72 h, MTT"}, "[2]": {"tested_on": "A549 cells", "assay": "MTT cytotoxicity assay, A549", "assay_type": "cell-based, human", "conditions": "for Cell viability of A549: 10 μM"}, "[3]": {"biological_target": "EGFR-TK (Homo sapiens, UniProt P00533)", "sequence (P00533 25-1210)": "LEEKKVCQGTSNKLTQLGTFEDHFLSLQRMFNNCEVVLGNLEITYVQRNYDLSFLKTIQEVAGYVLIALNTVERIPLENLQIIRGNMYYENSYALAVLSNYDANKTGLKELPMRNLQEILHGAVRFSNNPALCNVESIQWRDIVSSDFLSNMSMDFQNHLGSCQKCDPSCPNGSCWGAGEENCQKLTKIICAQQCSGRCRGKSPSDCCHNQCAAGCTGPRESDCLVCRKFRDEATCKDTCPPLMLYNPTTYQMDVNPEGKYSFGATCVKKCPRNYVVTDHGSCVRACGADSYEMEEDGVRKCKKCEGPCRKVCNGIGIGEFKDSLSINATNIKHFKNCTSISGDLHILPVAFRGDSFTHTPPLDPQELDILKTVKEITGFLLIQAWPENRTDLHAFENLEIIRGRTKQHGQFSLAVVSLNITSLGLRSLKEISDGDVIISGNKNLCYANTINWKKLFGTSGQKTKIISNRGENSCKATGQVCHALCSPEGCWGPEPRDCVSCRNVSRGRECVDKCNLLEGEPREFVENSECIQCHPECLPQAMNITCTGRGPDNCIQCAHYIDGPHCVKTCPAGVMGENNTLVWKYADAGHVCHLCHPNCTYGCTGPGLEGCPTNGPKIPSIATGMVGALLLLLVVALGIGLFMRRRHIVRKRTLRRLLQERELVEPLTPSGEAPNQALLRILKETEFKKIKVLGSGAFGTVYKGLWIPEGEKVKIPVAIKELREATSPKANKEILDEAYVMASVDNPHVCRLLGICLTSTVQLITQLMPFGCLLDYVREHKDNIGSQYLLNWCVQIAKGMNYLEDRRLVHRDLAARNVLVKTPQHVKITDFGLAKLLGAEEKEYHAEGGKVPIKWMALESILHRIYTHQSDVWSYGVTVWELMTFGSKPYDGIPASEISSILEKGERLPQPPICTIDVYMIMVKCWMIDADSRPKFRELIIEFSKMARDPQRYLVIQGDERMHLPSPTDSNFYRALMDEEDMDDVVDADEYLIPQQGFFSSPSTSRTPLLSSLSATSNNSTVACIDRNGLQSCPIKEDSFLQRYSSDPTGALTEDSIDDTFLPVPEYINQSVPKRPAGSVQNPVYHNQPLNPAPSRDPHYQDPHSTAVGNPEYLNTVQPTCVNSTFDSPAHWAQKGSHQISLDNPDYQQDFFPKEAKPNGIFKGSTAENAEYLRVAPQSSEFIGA", "assay": "ADP-Glo Kinase Assay, EGFR tyrosine kinase inhibition", "assay_type": "biochemical", "conditions": "for EGFR-TK inhibitory activity (screening): at 1 μM, compared to erlotinib, n = 2"}, "[4]": {"tested_on": "A431 cells", "assay": "cells", "conditions": "Homo sapiens, A-431, 72 h, read-out: IC50 A431"}, "[5]": {"tested_on": "Vero cells", "assay": "MTT cytotoxicity assay, Vero normal cell line", "assay_type": "cell-based, monkey", "conditions": "Primates, 72 h, read-out: IC50 Vero"}, "[6]": {"conditions": "Homo sapiens, A549, 72 h, read-out: IC50 A549"}}, "note": "Like-named read-outs stand apart in the source and are kept apart here.", "data": [{"smiles": "COc1ccc(S(=O)(=O)c2c3c4ccccc4n(C)c(-c4ccccc4)c-3c3ccccc23)cc1", "note": "[SIQ3]", "values": [{"measurement": "Cell viability of A431", "setting": "[1]", "value": "more susceptible"}, {"measurement": "Cell viability of A549", "setting": "[2]; 72 h, MTT", "value": "more vulnerable"}, {"measurement": "IC50", "setting": "[2]; [6]", "value": "33.5 ± 0.47", "unit": "µM"}, {"measurement": "EGFR-TK inhibitory activity (screening)", "setting": "[3]", "value": "higher EGFR-TK inhibitory activity than erlotinib"}, {"measurement": "IC50", "setting": "[4]", "value": "17.7 ± 0.35", "unit": "µM"}, {"measurement": "IC50", "setting": "[5]", "value": "> 100", "unit": "µM"}]}, {"smiles": "Cn1c(-c2ccccc2)c2c3ccccc3c(S(=O)(=O)c3ccc(Cl)cc3)c-2c2ccccc21", "note": "[SIQ5]", "values": [{"measurement": "Cell viability of A431", "setting": "[1]", "value": "more susceptible"}, {"measurement": "Cell viability of A549", "setting": "[2]; 72 h, MTT", "value": "more vulnerable"}, {"measurement": "IC50", "setting": "[2]; [6]", "value": "16.8 ± 0.41", "unit": "µM"}, {"measurement": "EGFR-TK inhibitory activity (screening)", "setting": "[3]", "value": "higher EGFR-TK inhibitory activity than erlotinib"}, {"measurement": "IC50", "setting": "[4]", "value": "9.93 ± 0.45", "unit": "µM"}, {"measurement": "IC50", "setting": "[5]", "value": "8.06 ± 0.15", "unit": "µM"}]}, {"smiles": "Cc1ccc(S(=O)(=O)c2c3c4ccccc4n(C)c(-c4ccccc4)c-3c3ccccc23)c(C)c1", "note": "[SIQ8]", "values": [{"measurement": "Cell viability of A549", "setting": "[2]; 72 h, MTT", "value": "more vulnerable"}, {"measurement": "IC50", "setting": "[2]; [6]", "value": "27.2 ± 0.71", "unit": "µM"}, {"measurement": "EGFR-TK inhibitory activity (screening)", "setting": "[3]", "value": "higher EGFR-TK inhibitory activity than erlotinib"}, {"measurement": "IC50", "setting": "[4]", "value": "14.1 ± 0.73", "unit": "µM"}, {"measurement": "IC50", "setting": "[5]", "value": "21.7 ± 0.5", "unit": "µM"}]}, {"smiles": "Cc1ccc(-c2c3c4ccccc4c(S(=O)(=O)c4ccc(C)cc4)c-3c3ccccc3n2C)cc1", "note": "[SIQ10]", "values": [{"measurement": "IC50", "setting": "[3]", "value": "0.0214 ± 0.00574", "unit": "µM"}, {"measurement": "EGFR-TK inhibitory activity (screening)", "setting": "[3]", "value": "higher EGFR-TK inhibitory activity than erlotinib"}]}, {"smiles": "COc1ccc(-c2c3c4ccccc4c(S(=O)(=O)c4ccc(C)cc4)c-3c3ccccc3n2C)cc1", "note": "[SIQ11]", "values": [{"measurement": "IC50", "setting": "[3]", "value": "0.0232 ± 0.00876", "unit": "µM"}, {"measurement": "EGFR-TK inhibitory activity (screening)", "setting": "[3]", "value": "higher EGFR-TK inhibitory activity than erlotinib"}]}, {"smiles": "Cc1ccc(S(=O)(=O)c2c3c4ccccc4n(C)c(-c4ccc(Cl)cc4)c-3c3ccccc23)cc1", "note": "[SIQ12]", "values": [{"measurement": "Cell viability of A431", "setting": "[1]", "value": "more susceptible"}, {"measurement": "Cell viability of A549", "setting": "[2]; 72 h, MTT", "value": "more vulnerable"}, {"measurement": "IC50", "setting": "[2]; [6]", "value": "23.2 ± 0.42", "unit": "µM"}, {"measurement": "EGFR-TK inhibitory activity (screening)", "setting": "[3]", "value": "higher EGFR-TK inhibitory activity than erlotinib"}, {"measurement": "IC50", "setting": "[4]", "value": "13.1 ± 0.5", "unit": "µM"}, {"measurement": "IC50", "setting": "[5]", "value": "7.25 ± 0.12", "unit": "µM"}]}, {"smiles": "Cc1ccc(S(=O)(=O)c2c3c4ccccc4n(C)c(-c4ccc(C)cc4C)c-3c3ccccc23)cc1", "note": "[SIQ17]", "values": [{"measurement": "Cell viability of A549", "setting": "[2]; 72 h, MTT", "value": "more vulnerable"}, {"measurement": "IC50", "setting": "[2]; [6]", "value": "33 ± 0.59", "unit": "µM"}, {"measurement": "EGFR-TK inhibitory activity (screening)", "setting": "[3]", "value": "higher EGFR-TK inhibitory activity than erlotinib"}, {"measurement": "IC50", "setting": "[4]", "value": "19.2 ± 0.97", "unit": "µM"}, {"measurement": "IC50", "setting": "[5]", "value": "> 100", "unit": "µM"}]}, {"smiles": "Cc1ccc(S(=O)(=O)c2c3c4cc(C)ccc4n(C)c(-c4ccccc4)c-3c3ccccc23)cc1", "note": "[SIQ19]", "values": [{"measurement": "Cell viability of A431", "setting": "[1]", "value": "more susceptible"}, {"measurement": "IC50", "setting": "[2]; [6]", "value": "29.3 ± 0.44", "unit": "µM"}, {"measurement": "EGFR-TK inhibitory activity (screening)", "setting": "[3]", "value": "higher EGFR-TK inhibitory activity than erlotinib"}, {"measurement": "IC50", "setting": "[4]", "value": "11.9 ± 0.41", "unit": "µM"}, {"measurement": "IC50", "setting": "[5]", "value": "5.88 ± 0.33", "unit": "µM"}]}, {"smiles": "C#Cc1cccc(Nc2ncnc3cc(OCCOC)c(OCCOC)cc23)c1", "note": "[erlotinib, reference compound]", "values": [{"measurement": "IC50", "setting": "[2]; Homo sapiens, A549, 72 h, read-out: IC50 A549, MTT, 72 h", "value": 33.3, "unit": "µM"}, {"measurement": "IC50", "setting": "[2]; read-out: IC50 A549, MTT, 72 h", "value": "33.3 ± 1.88", "unit": "µM"}, {"measurement": "IC50", "setting": "[5]", "value": "35 ± 1.35", "unit": "µM"}]}]}
